Results reported in patent US20130281512A1, “AGENTS FOR TREATING DISORDERS INVOLVING MODULATION OF RYANODINE RECEPTORS” (LES LABORATOIRES SERVIER, priority 2012, published 2013).
Blank lines part the entries; values can stand above or below the compound they belong to.

Legend:
[1] = target: T1, PKA-phosphorylated RyR2 (Homo sapiens, UniProt Q92736); test: Calstabin2 rebinding assay: binding of calstabin2 to PKA-phosphorylated RyR2 (cardiac SR, immunoblot); conditions: 100 nM compound; immunoblot with calstabin2 antibody
T1 construct: Cardiac SR membranes were prepared as previously described; from tissue; host or cells: cardiac sarcoplasmic reticulum (heart muscle microsomes)
Method: Cardiac SR membranes were prepared as previously described (Marx et al., 2000; Kaftan et al., Circ. Res., 1996, 78:990-97). Immunoblotting of microsomes (50 μg) was performed as described, with anti-calstabin antibody (1:1,000) (Jayaraman et al., J. Biol. Chem., 1992, 267:9474-77) for 1 hr at room temperature (Reiken et al., Circulation, 107:2459-66, 2003). After incubation with HRP-labeled anti-rabbit IgG (1:5,000 dilution; Transduction Laboratories, Lexington, Ky.), the blots were developed using ECL (Amersham Pharmacia, Piscataway, N.J.) and detected on x-ray film, or exposed to secondary antibodies labeled with infrared Dye and visualized on equipment from Li-Cor Biosciences (model Odyssey). Unless otherwise stated, compounds were tested at a concentration of 100 nM. A representative calstabin2 binding assay is presented below.
A. PKA phosphorylation of cardiac sarcoplasmic reticulum (CSR)
B. Reaction mixture was set up in 1.5 ml microfuge tube. 200 μg of cardiac SR were added to a reaction mix of kinase buffer, PKA and ATP to a final volume of 100 (Reaction mix below). ATP was added last to initiate the reaction.
20 μl Sample (cardiac SR, 2 or 10 μg/μl) 10 μl=10× Kinase buffer (80 mM MgCl2, 100 mM EGTA, 500 mM Tris/PIPES), pH=7.0
20 μl PKA (2units/ul) (Sigma # P2645)
40 μl=distilled H2O • 1. The tubes were incubated at 30° C. for 30 minutes. • 2. The reaction mix was then transferred to 0.5 ml thick walled glass tubes. • 3. The glass tubes containing the reaction mix were centrifuged for 10 min at 50,000×g in Sorvall Centrifuge RCM120EX using S120AT3 rotor. Centrifugation at 50,000×g for 10 min is sufficient to isolate the microsomes. • 4. The resulting pellet was washed 4 times with binding buffer (10 mM Imidazol 300 mM Sucrose, pH=7.4). Each time 100111 of 1× binding buffer was added to the tube to wash the pellet. The pellet was resuspended by flushing up and down using the pipette tip. After the last spin 501.11 of binding buffer was added and the pellets from all tubes were pooled. The reaction was stored at −20° C. • 5. Phosphorylation was confirmed by separating approximately 10 μg of CSR by 6% Polyacylamide gel electrophoresis (PAGE) and analyzing the immunoblots for both total RyR (5029 Ab, 1:3000 dilution or Monoclonal Ab from Affinity Bioreagents, Cat # MA3-916, 1:2000 dilution) and PKA phosphorylated RyR2 (P2809 Ab, 1:10000 dilution). • 6. Aliquots can be stored at −80 C.
C. Calstabin Rebinding Assay
• 1. PKA-phosphorylated CSR (approximately 20 μg) was incubated with 250 nM Calstabin 2 in 100111 binding buffer (as described above) with or without compounds. • 2. […] Calstabin2 binding was detected with anti-FKBP (Jayaraman et al., J. Biol. Chem. 1992; 267:9474-77, 1:2000) primary antibody and appropriate secondary antibody.

[2] = Metabolic stability in rat hepatic microsomes (Clint, predicted MF %); format: in vitro ADME; conditions: for Clint_mic rat (in vitro intrinsic clearance): 10^-7 M, 0.33 mg protein/ml, NADPH; for MF mic % (metabolic bioavailability): predicted from Clint assuming total absorption
Method: (§1) Compound solubilization: Stock solutions were made in DMSO, and working solutions in water containing 1 mg/ml BSA.
(§2) Prediction of metabolic bioavailability: Metabolic bioavailability predictions (MF %) were based on in vitro metabolic stability measurements with hepatic microsomes assuming total absorption. Briefly, unchanged drugs were quantified by LC-MS-MS following incubation (10^−7M) with rat and human hepatic microsomes (0.33 mg protein/ml) after 0, 5, 15, 30 and 60 min of incubation in presence of NADPH (1 mM). Enzymatic reaction was stopped with methanol (v/v) and proteins were precipitated by centrifugation. The in vitro intrinsic clearances (Clint_mic) expressed as ml/min/g protein were the slope (after LN linearization) of the unchanged drug remaining concentration versus incubation time. In vitro Clint were then scaled up to in vivo whole body (vivoClint) using 0.045 mg prot/kg of liver and liver weight of 11 g for the rat and 1.2 kg for Man.

[3] = Metabolic stability in human hepatic microsomes (Clint, predicted MF %); format: in vitro ADME; conditions: for Clint_mic man (in vitro intrinsic clearance): 10^-7 M, 0.33 mg protein/ml, NADPH; for MF mic % (metabolic bioavailability): predicted from Clint assuming total absorption
Method: as §1, §2

[4] = system: rat hepatocytes; test: Metabolic stability in rat hepatocytes; format: in vitro ADME; conditions: for Clint: 6.00E+05 cells/ml, 10^-7 M
Method: (§3) Compound solubilization: Stock solutions were made in DMSO, and working solutions in William medium containing 1/10 rat plasma or 1/4 human plasma.
(§4) Metabolic stability determination: Compounds were incubated at 10^−7 M with isolated hepatocytes (6E+5 cells/ml for rat hepatocytes and 4E+5 cells/ml for human hepatocytes) at 37° C. in plasma from the same species diluted in Wiliams medium (1/10 dilution for rat and 1/4 dilution for human). Sampling times were performed at 0, 10, 20, 30, 60 and 120 min and enzymatic reaction stopped with methanol (v/v). Proteins were precipitated by centrifugation and the supernatant was analyzed by LC/MS/MS. Clint expressed as ml/min/g protein were calculated as for hepatic microsomes using a ratio of 0.134 mg protein/ml for 4E+5 cells/ml for human and 0.201 mg protein/ml for 6E+5 cells/ml for rat. The presence of the reference drug and the potential metabolite was checked by LC/MS/MS during the assay in each sample.

[5] = system: human hepatocytes; test: Metabolic stability in human hepatocytes; format: in vitro ADME; conditions: for Clint: 4.00E+05 cells/ml, 10^-7 M
Method: as §3, §4

[6] = Metabolic stability in rat microsomes (% remaining); format: in vitro ADME
Method: (§5) 0.1M Tris HCl buffer at pH 7.4 containing 5 mM EDTA.
(§6) To a 50 mL falcon tube containing 2.79 mL of dilution buffer were added 0.429 mL of NADPH-regenerating soln. A and 0.079 mL of NADPH-regenerating soln. B […]
(§7) […] A 50 mL falcon tube containing 3.32 mL of dilution buffer was prewarmed at 37° C. for 15 min. (at least 10 min.) 0.178 mL of microsome (24.6 mg/mL) were added to the prewarmed dilution buffer. The protein concentration of this microsome preparation was 1.25 mg/mL.
(§8) Sample (Test Compound)—Original and Intermediate Stock Solutions:
(§9) 100 μM intermediate solution of the test compound from the original stock solution were prepared using the dilution buffer. A 5 μM solution was prepared by diluting the 100 μM intermediate solution using dilution buffer.
(§10) (The experiments were conducted in 1.5 mL eppendorf micro centrifuge tubes) 0 minutes incubation. Procedure: a. Add 100 μL of prewarmed microsomes b. Add 50 μL of 5 μM solution of the test compound. c. Add 500 μL of cold stop solution (ice cold Methanol) d. Add 100 μL of NADPH cofactor solution to the eppendorf. a. Vortex mix the eppendorf. […]
(§11) b. Add 100 μL of NADPH cofactor solution to the eppendorf. c. Add 50 μL of 5 μM solution of the test compound. d. Add 100 μL of prewarmed microsomes e. Incubate the eppendorf at 37° C. 300 rpm for ‘t’ min. on a thermomixer. f. Remove the eppendorf from thermomixer g. Add 500 μL of cold stop solution (ice cold Methanol) h. Vortex mix the eppendorf.
(§12) Both the ‘0’ and ‘t’ minutes incubated samples were centrifuged at 15, 000 rcf at 4° C. for 15 min. 500 μL of the supernatant solution was removed and subject it to LC/MS analysis (SIM—Selected Ion Monitoring) […]
(§13) Results are expressed as % test compound remaining=(MS Area response of T min sample/MS Area response of ‘0’ min sample)*100. The MS area used is an average of duplicate injections.
(§14) Time points=0, 15, 30 and 60 min. for each test compound
(§15) 2 μM Imipramine—5 min. and 2 μM Imipramine—15 min. incubation was used as a positive control for the rat and mouse liver microsome stability experiments.

[7] = Metabolic stability in mouse microsomes (% remaining); format: in vitro ADME
Method: as §5, §6, §7, §8, §9, §10, §11, §12, §13, §14, §15

[8] = system: DMD exon skipping; conditions: skeletal muscle of mdx mice; cited from earlier work
[9] = target: PKA-phosphorylated RyR1 (Homo sapiens, UniProt P21817); test: biochemical
Method: Immunoblotting of microsomes (50 μg) was performed as described, with anti-calstabin1 antibody (Zymed) (1:1,000). The blots were developed and quantified as described in Example 2.

[10] = system: ischemia-reperfusion induced heart failure; test: Model of chronic post-ischemic heart failure in rat (ischemia-reperfusion injury); format: in vivo; conditions: 5 mg/kg/d in drinking water, 3 months
Method: Chronic heart failure was induced in male wistar rats (224-240 g, 10-11 weeks of age) by ischemia-reperfusion (I/R) injury. For I/R protocol, the left anterior descending (LAD) coronary artery was occluded for 1 h. Drug treatment (5 mg/kg/d or 10 mg/kg/d in drinking water) was initiated 1 week after reperfusion and was maintained for a 3 month study period. […] Cardiac specimens were also analyzed to assess hypertrophy and collagen content. The study design is depicted in FIG. 3. Experiments were performed in a blinded manner. On parameters measured over time, comparison of Sham versus Vehicle and comparison of drug treatments are analyzed by 2 way ANOVAs with repeated measures. On parameters measured at sacrifice and morphometry, comparisons of Sham versus Vehicle are analyzed by t-test and comparisons of drug treatments by 1-way ANOVA followed by Dunnett test.

T1 sequence (Q92736 whole entry): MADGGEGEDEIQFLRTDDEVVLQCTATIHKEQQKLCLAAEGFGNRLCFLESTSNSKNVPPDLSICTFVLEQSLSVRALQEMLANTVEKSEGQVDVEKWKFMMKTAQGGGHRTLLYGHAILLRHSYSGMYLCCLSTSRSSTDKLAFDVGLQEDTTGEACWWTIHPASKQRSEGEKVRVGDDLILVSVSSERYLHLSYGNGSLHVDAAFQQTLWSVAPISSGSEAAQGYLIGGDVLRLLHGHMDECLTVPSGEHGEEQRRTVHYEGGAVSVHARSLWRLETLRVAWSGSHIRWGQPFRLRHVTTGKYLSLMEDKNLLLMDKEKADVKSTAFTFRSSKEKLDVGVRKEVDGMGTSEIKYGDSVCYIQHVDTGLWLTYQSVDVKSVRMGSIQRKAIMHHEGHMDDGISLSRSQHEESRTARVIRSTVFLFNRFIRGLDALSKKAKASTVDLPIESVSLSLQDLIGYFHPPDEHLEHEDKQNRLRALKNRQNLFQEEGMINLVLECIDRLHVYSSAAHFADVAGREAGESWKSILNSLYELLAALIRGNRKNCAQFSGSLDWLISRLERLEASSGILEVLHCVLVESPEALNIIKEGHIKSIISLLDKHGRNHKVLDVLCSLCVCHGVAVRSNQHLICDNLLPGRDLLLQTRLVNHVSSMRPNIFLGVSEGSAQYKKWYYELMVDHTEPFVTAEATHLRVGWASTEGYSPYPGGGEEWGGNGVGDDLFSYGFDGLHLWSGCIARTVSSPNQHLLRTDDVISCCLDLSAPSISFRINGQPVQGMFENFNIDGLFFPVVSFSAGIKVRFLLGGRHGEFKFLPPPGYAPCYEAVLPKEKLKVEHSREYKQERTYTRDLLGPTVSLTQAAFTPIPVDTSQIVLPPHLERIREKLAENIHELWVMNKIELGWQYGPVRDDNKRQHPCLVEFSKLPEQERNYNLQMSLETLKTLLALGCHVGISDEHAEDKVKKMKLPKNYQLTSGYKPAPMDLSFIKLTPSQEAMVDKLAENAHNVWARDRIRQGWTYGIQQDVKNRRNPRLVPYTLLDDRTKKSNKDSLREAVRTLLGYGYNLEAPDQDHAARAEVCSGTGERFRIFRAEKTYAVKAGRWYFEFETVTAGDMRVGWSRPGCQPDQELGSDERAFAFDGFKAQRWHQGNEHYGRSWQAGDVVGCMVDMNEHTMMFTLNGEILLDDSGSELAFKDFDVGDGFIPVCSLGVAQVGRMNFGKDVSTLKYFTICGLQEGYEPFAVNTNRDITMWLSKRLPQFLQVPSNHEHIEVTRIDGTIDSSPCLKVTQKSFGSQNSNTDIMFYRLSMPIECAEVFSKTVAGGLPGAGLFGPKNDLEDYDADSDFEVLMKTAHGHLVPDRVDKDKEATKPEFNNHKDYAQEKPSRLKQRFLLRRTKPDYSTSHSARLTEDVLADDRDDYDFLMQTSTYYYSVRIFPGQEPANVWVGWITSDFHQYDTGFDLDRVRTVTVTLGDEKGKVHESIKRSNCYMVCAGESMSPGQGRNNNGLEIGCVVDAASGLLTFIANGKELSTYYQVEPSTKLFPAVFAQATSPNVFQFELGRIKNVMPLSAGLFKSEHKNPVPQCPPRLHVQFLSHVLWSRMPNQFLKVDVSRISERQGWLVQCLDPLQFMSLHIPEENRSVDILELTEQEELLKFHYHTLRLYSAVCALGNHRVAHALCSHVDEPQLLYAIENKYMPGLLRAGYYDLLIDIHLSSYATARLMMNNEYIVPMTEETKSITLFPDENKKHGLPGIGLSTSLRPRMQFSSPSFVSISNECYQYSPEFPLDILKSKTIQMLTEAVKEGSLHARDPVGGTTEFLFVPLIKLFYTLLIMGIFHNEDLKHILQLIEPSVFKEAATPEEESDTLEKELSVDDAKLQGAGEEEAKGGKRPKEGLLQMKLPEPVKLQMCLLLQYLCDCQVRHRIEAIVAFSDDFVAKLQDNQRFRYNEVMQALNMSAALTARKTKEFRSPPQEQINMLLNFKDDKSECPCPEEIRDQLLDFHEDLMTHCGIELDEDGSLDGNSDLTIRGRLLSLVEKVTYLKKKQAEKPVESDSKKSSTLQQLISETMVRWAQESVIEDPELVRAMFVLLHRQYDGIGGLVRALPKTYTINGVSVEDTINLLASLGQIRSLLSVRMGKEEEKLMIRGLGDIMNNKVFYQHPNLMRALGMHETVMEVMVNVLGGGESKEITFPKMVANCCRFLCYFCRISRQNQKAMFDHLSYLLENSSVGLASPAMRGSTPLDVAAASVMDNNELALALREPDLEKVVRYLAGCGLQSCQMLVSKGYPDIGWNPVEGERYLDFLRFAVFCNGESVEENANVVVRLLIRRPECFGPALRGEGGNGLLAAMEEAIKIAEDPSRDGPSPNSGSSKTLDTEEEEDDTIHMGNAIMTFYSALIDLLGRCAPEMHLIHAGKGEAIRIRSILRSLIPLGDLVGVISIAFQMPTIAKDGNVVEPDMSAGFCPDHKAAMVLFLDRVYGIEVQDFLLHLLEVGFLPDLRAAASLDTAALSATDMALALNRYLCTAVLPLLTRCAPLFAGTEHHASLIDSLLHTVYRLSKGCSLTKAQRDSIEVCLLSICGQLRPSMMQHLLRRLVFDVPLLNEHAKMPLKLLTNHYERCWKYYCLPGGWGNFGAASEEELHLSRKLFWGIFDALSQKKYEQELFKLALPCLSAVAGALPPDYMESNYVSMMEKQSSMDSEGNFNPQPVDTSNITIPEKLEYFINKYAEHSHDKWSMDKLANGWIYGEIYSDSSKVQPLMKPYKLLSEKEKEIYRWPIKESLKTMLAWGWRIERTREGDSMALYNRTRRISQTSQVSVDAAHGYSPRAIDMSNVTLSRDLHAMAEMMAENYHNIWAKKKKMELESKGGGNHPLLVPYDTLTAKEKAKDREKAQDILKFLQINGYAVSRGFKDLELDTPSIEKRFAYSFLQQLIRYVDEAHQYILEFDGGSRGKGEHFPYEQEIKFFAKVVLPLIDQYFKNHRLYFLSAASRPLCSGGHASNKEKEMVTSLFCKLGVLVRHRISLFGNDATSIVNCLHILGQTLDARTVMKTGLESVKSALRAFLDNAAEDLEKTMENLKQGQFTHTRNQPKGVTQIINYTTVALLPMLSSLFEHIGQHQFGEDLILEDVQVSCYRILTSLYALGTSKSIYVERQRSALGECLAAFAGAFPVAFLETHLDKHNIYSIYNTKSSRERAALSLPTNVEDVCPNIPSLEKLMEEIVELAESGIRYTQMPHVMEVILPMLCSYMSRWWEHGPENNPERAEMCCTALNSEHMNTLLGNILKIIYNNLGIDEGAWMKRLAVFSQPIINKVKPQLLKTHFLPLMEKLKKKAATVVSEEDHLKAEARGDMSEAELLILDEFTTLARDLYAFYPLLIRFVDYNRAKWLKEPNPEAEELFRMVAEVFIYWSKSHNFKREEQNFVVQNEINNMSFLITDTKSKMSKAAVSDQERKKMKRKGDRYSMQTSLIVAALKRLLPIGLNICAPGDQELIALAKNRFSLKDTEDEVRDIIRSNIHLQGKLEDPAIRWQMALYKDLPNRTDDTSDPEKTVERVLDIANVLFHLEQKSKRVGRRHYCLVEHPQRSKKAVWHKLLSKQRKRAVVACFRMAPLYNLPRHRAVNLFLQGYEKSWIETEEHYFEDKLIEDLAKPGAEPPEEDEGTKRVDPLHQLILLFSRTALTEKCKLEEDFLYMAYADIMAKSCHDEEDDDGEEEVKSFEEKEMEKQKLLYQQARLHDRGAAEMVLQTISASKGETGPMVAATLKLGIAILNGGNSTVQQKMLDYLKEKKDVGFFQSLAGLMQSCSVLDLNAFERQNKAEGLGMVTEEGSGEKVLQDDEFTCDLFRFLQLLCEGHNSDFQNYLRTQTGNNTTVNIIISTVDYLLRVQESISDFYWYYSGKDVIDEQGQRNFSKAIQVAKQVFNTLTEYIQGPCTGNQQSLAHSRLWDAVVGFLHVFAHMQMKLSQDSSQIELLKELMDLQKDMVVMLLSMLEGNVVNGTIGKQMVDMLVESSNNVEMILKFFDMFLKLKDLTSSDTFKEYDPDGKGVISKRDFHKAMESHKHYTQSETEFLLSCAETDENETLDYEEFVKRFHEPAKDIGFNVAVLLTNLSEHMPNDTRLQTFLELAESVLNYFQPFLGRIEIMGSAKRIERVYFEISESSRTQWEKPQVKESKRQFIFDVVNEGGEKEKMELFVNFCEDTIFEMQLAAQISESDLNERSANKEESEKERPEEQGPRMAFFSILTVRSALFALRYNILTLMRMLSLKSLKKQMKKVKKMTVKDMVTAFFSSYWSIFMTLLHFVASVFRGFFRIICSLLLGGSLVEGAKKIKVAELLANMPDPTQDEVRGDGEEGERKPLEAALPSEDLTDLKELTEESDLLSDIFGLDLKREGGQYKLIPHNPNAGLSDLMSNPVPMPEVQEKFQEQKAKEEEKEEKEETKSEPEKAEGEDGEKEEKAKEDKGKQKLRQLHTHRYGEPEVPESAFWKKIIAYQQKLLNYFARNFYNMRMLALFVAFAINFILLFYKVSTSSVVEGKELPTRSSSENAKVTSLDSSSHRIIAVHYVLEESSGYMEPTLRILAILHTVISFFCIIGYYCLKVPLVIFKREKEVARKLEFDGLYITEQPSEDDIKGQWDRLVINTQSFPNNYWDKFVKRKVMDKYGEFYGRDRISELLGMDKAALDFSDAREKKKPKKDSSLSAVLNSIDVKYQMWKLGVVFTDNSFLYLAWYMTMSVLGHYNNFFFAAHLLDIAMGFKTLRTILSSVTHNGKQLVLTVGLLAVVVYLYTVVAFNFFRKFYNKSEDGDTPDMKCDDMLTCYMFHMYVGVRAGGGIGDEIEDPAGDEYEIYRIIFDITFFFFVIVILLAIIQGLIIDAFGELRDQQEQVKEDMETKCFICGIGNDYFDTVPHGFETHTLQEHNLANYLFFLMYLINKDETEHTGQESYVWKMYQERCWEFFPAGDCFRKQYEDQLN
T1 sequence (P68106 whole entry partner): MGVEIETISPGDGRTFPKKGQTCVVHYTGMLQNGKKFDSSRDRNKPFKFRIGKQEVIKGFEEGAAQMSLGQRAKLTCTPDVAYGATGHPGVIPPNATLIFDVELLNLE

Structure (SMILES): COC(=O)c1ccc(CN2CCSc3ccc(OC)cc3C2)cc1 [Compound 3, Methyl 4-((7-methoxy-2,3-dihydrobenzo[f][1,4]thiazepin-4(5H)-yl)methyl)benzoate]
- binding of calstabin2 to PKA-phosphorylated RyR2 [1]: prevent dissociation of calstabin2 from PKA-phosphorylated RyR2, and/or enhance the (re)binding of calstabin2 to PKA-phosphorylated RyR2

- Class (metabolic bioavailability) [2]: very low
- Clint_mic rat (in vitro intrinsic clearance) [2]: 823 ml/min/gprot
- MF mic % (metabolic bioavailability) [2]: 5%
- Class (metabolic bioavailability) [3]: very low
- Clint_mic man (in vitro intrinsic clearance) [3]: 285 ml/min/gprot
- MF mic % (metabolic bioavailability) [3]: 6%
- MF rat % [4]: 3%
- Clint [4]: 1334 ml/min/gprot
- MF human % [5]: 3%
- Clint [5]: 693 ml/min/gprot
- % remaining ([6]; 15 min): 1%
- % remaining ([6]; 30 min): 0%
- % remaining ([6]; 1 h): 0%
- % remaining ([7]; 15 min): 0%
- % remaining ([7]; 30 min): 0%
- % remaining ([7]; 1 h): 0%
Structure (SMILES): COc1ccc2c(c1)CN(Cc1ccc(O)cc1)CCS2 [B]

Structure (SMILES): O=C1CN(/N=C/c2ccc(-c3ccc([N+](=O)[O-])cc3)o2)C(O)=N1 [Dantrolene]
- antisense oligomer-guided exon skipping [8]: potentiate

Structure (SMILES): COC(=O)c1cccc(CN2CCSc3ccc(OC)cc3C2)c1 [Compound 2, Methyl 3-((7-methoxy-2,3-dihydrobenzo[f][1,4]thiazepin-4(5H)-yl)methyl)benzoate]
- binding of calstabin2 to PKA-phosphorylated RyR2 [1]: prevent dissociation of calstabin2 from PKA-phosphorylated RyR2, and/or enhance the (re)binding of calstabin2 to PKA-phosphorylated RyR2

- EC50 [9]: ~150 nM
Structure (SMILES): COc1ccc2c(c1)CN(Cc1cccc(C(=O)O)c1)CCS2 [Compound 4, 3-((7-Methoxy-2,3-dihydrobenzo[f][1,4]thiazepin-4(5H)-yl)methyl)benzoic acid]
- binding of calstabin2 to PKA-phosphorylated RyR2 [1]: prevent dissociation of calstabin2 from PKA-phosphorylated RyR2, and/or enhance the (re)binding of calstabin2 to PKA-phosphorylated RyR2
- binding of calstabin1 to PKA phosphorylated RyR1 ([9]; indicated concentrations, immunoblot with calstabin1 antibody): prevented the dissociation of calstabin1 from PKA phosphorylated RyR1 and/or enhanced the (re)binding of calstabin1 to PKA-phosphorylated RyR1 in a dose-dependent manner

Structure (SMILES): COc1ccc2c(c1)CN(CC(=O)O)CCS2 [A]
- systolic and diastolic cardiac function [10]: failed to improve

- Class (metabolic bioavailability) [2]: very low
- Clint_mic rat (in vitro intrinsic clearance) [2]: 1926 ml/min/gprot
- MF mic % (metabolic bioavailability) [2]: 2%
- Class (metabolic bioavailability) [3]: very low
- Clint_mic man (in vitro intrinsic clearance) [3]: 1326 ml/min/gprot
- MF mic % (metabolic bioavailability) [3]: 2%
- MF rat % [4]: 2%
- Clint [4]: 2610 ml/min/gprot
- MF human % [5]: 16%
- Clint [5]: 100 ml/min/gprot
- % remaining ([6]; 15 min): 0%
- % remaining ([6]; 30 min): 0%
- % remaining ([6]; 1 h): 0%
- % remaining ([7]; 15 min): 0%
- % remaining ([7]; 30 min): 0%
- % remaining ([7]; 1 h): 0%
Structure (SMILES): COc1ccc2c(c1)CN(Cc1ccccc1)CCS2 [Compound C]
